Laboratory results taken from ChEMBL document CHEMBL4184154, “Docking based design of diastereoisomeric MTCA as GPIIb/IIIa receptor inhibitor” (Bioorg Med Chem Lett, 2017).
Calls of active or inactive are those of the source. The calls are words filed in the database; no cut-off is given here. Where a SMILES comes first, the peptide text is derived from it. Bridges are numbered along the chain shown (N, C = ends). [ ]: non-standard residue; d: D form. hArg = N=C(N)NCCCC[C@H](N)C(=O)O; Mpa = O=C(O)CCS

Tests used:
[1] = biological target: T1, Integrin subunit alpha 2b/beta-3 (Rattus norvegicus) (UniProt D3ZAC0+Q8R2H2); assay: Inhibition of GP2b/3a in rat platelet-rich plasma assessed as reduction in arachidonic acid-induced platelet aggregation at 10^-8 to 10^-5 M after 5 mins by aggregometric analysis
Platelet = assay: Antiplatelet activity in rat platelet-rich plasma assessed as inhibition of arachidonic acid-induced platelet aggregation by atomic force microscopic method; type: functional
Rattus norvegicus [2] = assay: Anti-thrombotic activity in Sprague-Dawley rat arterial thrombosis model assessed as reduction in thrombus weight at 1 umol/kg, po pretreated for 30 mins followed by thrombosis induction measured after 15 mins; type: functional, organism-based
Rattus norvegicus [3] = assay: Antiplatelet activity in Sprague Dawley rat arterial thrombosis model assessed as downregulation of GP2b/3a protein expression in plasma administered at 1 umol/kg, po by ELISA; type: functional, organism-based
[4] = biological target: T2, Integrin subunit alpha 2b/beta-3 (Rattus norvegicus, UniProt D3ZAC0+Q8R2H2); assay: Binding affinity to GP2b/3a in rat blood assessed as conformational change by measuring soluble GP2b/3a levels after 12 hrs by UV-spectrophotometric analysis
T2 sequence (D3ZAC0 whole entry): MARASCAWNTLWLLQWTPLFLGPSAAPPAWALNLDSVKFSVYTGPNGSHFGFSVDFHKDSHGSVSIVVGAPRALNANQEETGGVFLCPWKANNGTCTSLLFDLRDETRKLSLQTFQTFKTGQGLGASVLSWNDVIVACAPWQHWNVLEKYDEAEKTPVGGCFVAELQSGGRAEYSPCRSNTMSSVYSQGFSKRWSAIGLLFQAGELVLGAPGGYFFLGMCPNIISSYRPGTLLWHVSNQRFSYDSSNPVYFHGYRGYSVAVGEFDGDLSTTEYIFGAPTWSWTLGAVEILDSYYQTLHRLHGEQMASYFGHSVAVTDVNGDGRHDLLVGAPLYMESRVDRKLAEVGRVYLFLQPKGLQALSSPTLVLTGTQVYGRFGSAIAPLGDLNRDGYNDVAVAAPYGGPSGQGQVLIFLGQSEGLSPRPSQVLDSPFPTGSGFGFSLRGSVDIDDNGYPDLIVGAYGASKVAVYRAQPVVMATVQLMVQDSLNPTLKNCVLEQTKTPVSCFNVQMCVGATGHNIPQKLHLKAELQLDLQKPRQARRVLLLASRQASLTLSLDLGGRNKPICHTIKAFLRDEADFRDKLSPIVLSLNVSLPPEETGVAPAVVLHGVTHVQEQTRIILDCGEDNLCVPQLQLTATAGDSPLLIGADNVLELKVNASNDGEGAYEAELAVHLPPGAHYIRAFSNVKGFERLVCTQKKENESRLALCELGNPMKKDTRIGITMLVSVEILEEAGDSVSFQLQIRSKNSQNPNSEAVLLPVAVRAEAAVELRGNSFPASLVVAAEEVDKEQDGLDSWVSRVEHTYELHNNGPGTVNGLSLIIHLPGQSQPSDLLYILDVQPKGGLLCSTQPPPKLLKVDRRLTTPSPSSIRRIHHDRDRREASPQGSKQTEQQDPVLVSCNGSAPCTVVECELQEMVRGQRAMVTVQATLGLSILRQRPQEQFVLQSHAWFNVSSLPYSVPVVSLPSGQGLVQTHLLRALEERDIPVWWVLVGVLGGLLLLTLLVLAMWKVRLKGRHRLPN
T2 sequence (Q8R2H2 whole entry): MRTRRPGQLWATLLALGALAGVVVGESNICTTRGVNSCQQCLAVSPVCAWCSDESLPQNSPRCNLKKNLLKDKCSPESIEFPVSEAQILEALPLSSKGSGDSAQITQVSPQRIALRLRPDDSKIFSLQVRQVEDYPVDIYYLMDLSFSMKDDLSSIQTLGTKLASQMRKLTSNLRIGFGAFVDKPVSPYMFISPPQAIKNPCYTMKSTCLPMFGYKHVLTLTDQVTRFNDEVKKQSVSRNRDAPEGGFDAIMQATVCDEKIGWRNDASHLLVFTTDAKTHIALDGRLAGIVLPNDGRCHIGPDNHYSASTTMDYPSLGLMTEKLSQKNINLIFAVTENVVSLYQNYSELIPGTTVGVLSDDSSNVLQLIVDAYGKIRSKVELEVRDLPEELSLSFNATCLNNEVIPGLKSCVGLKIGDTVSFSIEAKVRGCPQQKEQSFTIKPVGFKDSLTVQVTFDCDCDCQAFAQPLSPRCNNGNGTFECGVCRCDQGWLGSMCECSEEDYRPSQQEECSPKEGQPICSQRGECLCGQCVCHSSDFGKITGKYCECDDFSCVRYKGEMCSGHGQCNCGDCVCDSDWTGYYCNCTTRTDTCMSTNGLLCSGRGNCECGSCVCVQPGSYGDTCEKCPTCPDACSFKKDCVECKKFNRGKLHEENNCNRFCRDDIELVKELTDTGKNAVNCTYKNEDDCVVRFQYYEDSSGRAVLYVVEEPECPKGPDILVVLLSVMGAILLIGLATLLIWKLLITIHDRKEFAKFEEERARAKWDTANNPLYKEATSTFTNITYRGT

Rattus norvegicus [5] = assay: Anti-thrombotic activity in Sprague-Dawley rat arterial thrombosis model assessed as reduction in thrombus weight at 16.7 umol/kg, po pretreated for 30 mins followed by thrombosis induction measured after 15 mins; type: functional, organism-based
[6] = biological target: T1, Integrin subunit alpha 2b/beta-3 (Rattus norvegicus); assay: Inhibition of GP2b/3a in rat platelet-rich plasma assessed as reduction in arachidonic acid-induced platelet aggregation at 10^-8 to 10^-2 M after 5 mins by aggregometric analysis

Row | SMILES | inhibition [1] | EC50 [4] | inhibition [6] | Activity (Platelet) | MEC (Platelet) | Activity (Rattus norvegicus [2]) | Activity (Rattus norvegicus [3]) | Activity (Rattus norvegicus [5])
1 | CC(=O)Oc1ccccc1C(=O)O |  |  |  |  |  |  |  | Active
2 | N=C(N)NCCC[C@H](N)C(=O)NCC(=O)N[C@@H](CC(=O)O)C(=O)N[C@@H](CO)C(=O)O |  |  | Active |  |  |  |  | 

Second part, led by results:

Row | inhibition [1] | EC50 [4] | inhibition [6] | SMILES | Activity (Platelet) | MEC (Platelet) | Activity (Rattus norvegicus [2]) | Activity (Rattus norvegicus [3]) | Activity (Rattus norvegicus [5])
3 | Active |  |  | N=C(N)NCCCC[C@@H]1NC(=O)CCSSC[C@@H](C(N)=O)NC(=O)[C@@H]2CCCN2C(=O)[C@H](Cc2c[nH]c3ccccc23)NC(=O)[C@H](CC(=O)O)NC(=O)CNC1=O ([Mpa][hArg]GDWPC-NH2; disulfide 1-7) |  |  |  |  | 
4 | Active | 1160 nM |  | C[C@H]1N[C@H](C(=O)O)Cc2c1[nH]c1ccccc21 | Dose-dependent effect | 1 ×10⁻⁶ M | Active | Active | 
5 | Active | 1660 nM |  | C[C@@H]1N[C@H](C(=O)O)Cc2c1[nH]c1ccccc21 | Dose-dependent effect | 1 ×10⁻⁵ M | Active | Active | 
